Patent publication US20100004325A1, “Use of Baicalein As Prolyl Hydroxylase 2 Inhibitor” (Korea Institute of Science and Technology, priority 2007, published 2010)
pIC50: −log10 of the molar value. Several values for one entry are separate records, joined by “and”; a condition that tells them apart may be missing. Equal entries are not always repeated.

How the values were obtained:
[1] = molecular target: T1, PHD2 (Homo sapiens, UniProt Q9GZT9); assay: Fluorescence polarization assay of PHD2-mediated hydroxylation of F-P564 peptide (binding to VBC protein); type: biochemical; conditions: proline hydroxylation 20 min, baicalein 0 to 200 μM, 500 nM VBC protein; read-out: concentration of baicalein that results in 50% inhibition of the PHD2 activity (IC50)
T1 construct: made in house; host or cells: E. coli BL21 (DE3), pGEX-4T-1
Procedure: In order to screen a PHD2 inhibitor, 1040 compounds having biological activities (NINDS Custom Collection II, MicroSource Discovery Systems) were used. First, 1 μl of each compound was aliquoted into a 1.5 ml tube at the final concentration of 20 μM. Then, GST-PHD2 (final concentration: 0.2-0.3 μg/μl) was mixed with the each compound, followed by adding a buffer (20 mM Tris-HCl, pH 8.0, 100 mM NaCl, 1 mM EDTA, 1 mM PMSF, 0.5% NP-40) thereto. […]
[…] After mixing at room temperature, the resulting mixture was transferred to a 96-well plate, and fluorescence polarization was measured by using VICTOR (Perkin-Elmer).
After obtaining the fluorescence polarization value of the mixture of the F-Hy564 peptide ([…]) in the buffer by VICTOR, the PHD2 inhibitory activity of each compound was represented in percentage based on that the fluorescence polarization value. 26 compounds with at least 60% of PHD2 inhibitory activity were randomly selected. […]
In order to examine the PHD2 inhibitory activity of baicalein, proline hydroxylation was performed for 20 min with increasing final concentrations of baicalein from 0 to 200 μM. […] Fluorescence polarization of the resulting mixture was measured by using a fluorometer (Perkin-Elmer), and the size of slit was 6 nm and the integration time was 5 sec.

[2] = molecular target: T2, F-HyP564 peptide / VBC protein (Homo sapiens, UniProt P40337); assay: Fluorescence polarization of F-HyP564 peptide bound to VBC protein (counter-test); type: binding
T2 construct: made in house; host or cells: E. coli BL21 (DE3), co-expression of pGEX4T-VHL-EB and pDEV-EC (pET29b)

[3] = molecular target: T1, PHD2; assay: Proline hydroxylation of B-P564 peptide by PHD2, MALDI mass spectrometry; type: biochemical; conditions: 800 μM baicalein, 1.4 μg/μl PHD2, 2 hours, room temperature
Procedure: For the analysis of proline hydroxylation, 800 μM of baicalein and 1.4 μg/μl of PHD2 were mixed in a buffer (20 mM Tris-HCl, pH 8.0, 100 mM NaCl, 1 mM EDTA, 1 mM PMSF, 0.5% NP-40) supplemented with ascorbic acid (final concentration: 400 μM) and α-ketoglutarate (final concentration: 100 μM). Then, 3 μM of the B-P564 peptide was added to the resulting mixture, and reacted at room temperature for 2 hours. Excess salts in the enzyme reactant were removed by ZipTipC18 (Millipore), and the eluted reactant was analyzed by MALDI mass spectrometry.

[4] = molecular target: T3, FIH1 (Homo sapiens, UniProt Q9NWT6); assay: Asparagine hydroxylation of F-N803 peptide by FIH1, MALDI mass spectrometry; type: biochemical; conditions: 20 μM baicalein, 0.55 μg/μl His-FIH1, 2 hours, room temperature
T3 construct: made in house; host or cells: E. coli BL21 (DE3), pET-28a
Procedure: Further, in order to examine the inhibitory activity of baicalein against FIH1, 20 μM of baicalein and 0.55 μg/μl of His-FIH1 were mixed in a buffer (50 mM Tris-HCl, pH 7.5, 5 mM KCl, 1.5 mM MgCl2) supplemented with ascorbic acid (final concentration: 400 μM) and α-ketoglutarate (final concentration: 100 μM). Then, 4 μM of the F-HIF-1α peptide containing the 788th-822nd amino acid was added to the resulting mixture, and reacted at room temperature for 2 hours. Excess salts in the reactant were removed by ZipTipC18, and the eluted reactant was analyzed by MALDI mass spectrometry.

[5] = tested on: HIF-1α; assay: HIF-1α protein expression in HepG2 cells, western blotting; type: cell-based; conditions: HepG2, normoxia, 6 hours; increase similar to HIF-1α in hypoxia
Procedure: In order to examine the change of the HIF-1α protein expression by baicalein in a cell, HepG2 strain was grown to 80% confluence on a 60 mm tissue culture plate. Baicalein with increasing concentrations was added to the cultured cell and further cultured in normoxia for 6 hours, and as controls, same cell mixtures were cultured in hypoxia. The cells were washed with 4° C. phosphate based saline buffer, and eluted with radioimmunoprecipitation analysis solution containing 150 mM NaCl, 1% Nonidet P-40, 0.5% deoxycholate, 0.1% SDS, 50 mM Tris (pH 7.4). 100 μg/ml PMSF, 10 μg/ml leupeptin, 1 μg/ml antipain, 10 μg/ml aprotinin, 50 mM β-glycerophosphate, 25 mM NaF, 20 mM EGTA, 1 mM DTT and 1 mM Na3VO4. Then, the cells were centrifuged, and the cell extracts thus obtained were quantified by Bradford protein assay. In order to perform the immunoblot against HIF-1α, 20 μg of the cell extract was suspended in SDS sample buffer, and heated in a water bath for 5 min to completely solublize the protein structure. […] The membrane was treated with ECL solution and exposed to X-ray film for 5 min, and finally the HIF-1α protein was detected, and subjected to luminescence image analyzer (Model LAS-3000, Fuji) for detailed analysis.

[6] = tested on: HIF-1α binding to hypoxia-response element (HRE); assay: p(HRE)4-luciferase reporter assay in HeLa cells; type: cell-based; conditions: 20 μM baicalein, 16 hours
Procedure: In order to examine the binding of the HIF-1α stabilized by baicalein in normoxia with HRE existed on a target gene, luciferase assay was conducted as follows. Specifically, HeLa cells (5×10^4 cells/well) were cultured on a 24-well plate, and 100 ng of p(HRE)4-luciferase plasmid and 50 ng of β-galactosidase expression vector, pCHO110, were co-transfected thereinto. As a control to 20 μM of baicalein, DFO (deferoxamine) and CoCl2 were added to the cells, respectively, and cultured for 16 hours. The cell extract was obtained, and the luciferase activity thereof was measured by luminometer (Tuner Designs).
The value was normalized for the β-galactosidase activity value and the total amount of protein measured by BCA protein analysis (Sigma).

[7] = tested on: VEGF; assay: VEGF mRNA expression in HepG2 cells, RT-PCR; type: cell-based; conditions: HepG2, normoxia
Procedure: In order to examine the expression of VEGF known as a representative target gene of the HIF-1α, RT-PCR was conducted as follows. In normoxia, DMSO was treated to HepG2 cells as a negative control, and its influence was observed. As a positive control, HepG2 cells were cultured in hypoxia for 16 hours. In order to amplify cDNA of VEGF mRNA expressed in the cell, the RNA of the cultured cell was subjected to RT-PCR by using forward primer (5′-ccatgaactttctgctdtctt-3′, SEQ ID NO: 5) and reverse primer (5′-[…]-3′, SEQ ID NO: 6). Further, in order to amplify cDNA of 18s rRNA, the RNA of the cultured cell was subjected to RT-PCR by using forward primer (5′-[…]-3′, SEQ ID NO: 7) and reverse primer (5′-[…]-3′, SEQ ID NO: 8) (Table 2).
The amplified product was subjected to electrophoresis on 1.5% agarose-gel, and the mRNA expression was quantitated by phosphoimager (Model Las3000, Fuji) (see FIG. 6a).

[8] = tested on: VEGF; assay: VEGF secretion by HeLa cells, ELISA; type: cell-based, human; conditions: 20 μM baicalein, 16 hours, compared with DMSO control
Procedure: In order to examine the secretion change of the VEGF protein known as a secretion protein synthesized in a cell, its cell culture solution was subjected to ELISA as follows. Specifically, HeLa cells aliquoted on a 24-well plate were cultured for 24-48 hour, and DMSO, CoCl2 (200 μM), DFO (125 μM) and baicalein (20 μM) were treated thereto, respectively. After culturing for 16 hours, the cell solution was recovered and centrifuged to separate supernatant. The supernatant was aliquoted on an antibody-coated well plate using human VEGF Quantikine ELISA kit (R&D Systems) to monitor the amount of VEGF in the supernatant. Then, an antibody for VEGF was treated to each well, followed by measuring the amount of the VEGF using luminometer.

[9] = tested on: 12-lipoxygenase; conditions: Daotai et al., JBC 281; cited from earlier work

O=c1cc(-c2ccccc2)oc2cc(O)c(O)c(O)c12 [baicalein]
pIC50 [1]: ~4.82 and 4.82
fluorescence polarization value of F-HyP564 peptide with VBC protein ([2]; baicalein at the highest concentration, 500 nM VBC protein): did not decrease
effect on interaction of F-HyP564 with the VBC protein (fluorescence polarization) ([2]; up to 20 μM of baicalein): did not affect
hydroxylation of the proline residue of B-P564 peptide [3]: not hydroxylated
hydroxylation of the asparagine residue of F-HIF-1α peptide (788th-822nd amino acid) [4]: not hydroxylated
concentration of baicalein at which HIF-1α protein expression increased [5]: more than 50 μM
luciferase activity normalized for total protein amount [6]: a similar result was obtained
amount of the expressed VEGF (FIGS. 6a and 6b) [7]: increases
amount of VEGF in the supernatant [8]: significantly increase
activity of 12-lipoxygenase [9]: inhibits
